Measurements from patent US20230132582A1, “NOVEL USE OF ASPIRIN COMPOUND IN INCREASING NUCLEIC ACID EXPRESSION” (priority 2020, published 2023).

Assays:
[1] = tested on: expression of luciferase from AAV9-Lxp3.3-Gluc virus; experiment: AAV9-mediated luciferase (Gluc) expression in plasma of mice pre-treated with aspirin at different doses (Example 2); assay type: in vivo, C57BL/6J mice
Experimental: (§1) Male C57BL/6J mice (purchased from Shanghai Jiesijie Experimental Animals Co., Ltd.) (n=4) with an average weight of 20 g were divided into six groups. Aspirin was used for intraperitoneal injection for 7 consecutive days (Day −7 to Day −1), at doses of 1 mg/kg, 15 mg/kg, 30 mg/kg, 50 mg/kg, 100 mg/kg, respectively, to five groups of mice. The sixth group was injected with 5% castor oil (in PBS buffer (catalogue number: 02-024-1ACS, BI)) as a control. On Day 0, AAV9-Lxp3.3-Gluc virus was injected intravenously (5×10^12 vg/kg) to each mouse in every group, and expression of luciferase was detected from Day 1 onwards.
Blood samples of mice were collected by retro-orbital bleeding. […] The contents of IFN-α and IFN-β were determined by using Mouse IFN-β ELISA kit (720131-2, Shanghai Mlbio Co., Ltd.), LEGEND MAX™ Mouse IFN-β ELISA Kit (439407, BioLegend), and Mouse IFN-α ELISA kit (706291-2, Shanghai Mlbio Co., Ltd.).
(§2) Coelenterazine h (40906ES02, Shanghai Yeasen Biotech Co., Ltd.) buffer was prepared first: to 500 mL of ultra-pure water was added 29.72 g of sodium ascorbate, and then 50 mL of Tris-HCl (1 mol/L, pH 7.4). […] of the above working solution is added to a […], and the relative light unit (RLU) was detected with a Synergy H1 multifunctional microplate reader.

[2] = tested on: IDS enzyme activity in brain (AAV9-CB-IDS); experiment: IDS enzyme activity in brain of MPSII mice after AAV9-CB-IDS with aspirin pre-treatment (Example 7); assay type: in vivo, B6N.Cg-Ids^tm1Muen/J mice (MPSII model)
Experimental: The effects of aspirin on improving the expression of therapeutic transgene in brain were determined. AAV9-CB-IDS vector were produced using methods described in Example 1, except that iduronate 2-sulfatase (IDS) gene expression cassette was inserted between the AAV ITRs. The gene encoding IDS was provided in SEQ ID NO: 7 and the protein sequence of IDS was provided in SEQ ID NO: 11. […] A group of wild-type control mice was used as control. The AAV9-CB-IDS vector for treating MPSII was administrated as described in Example 1, at a dose of 3×10^13 vg/kg (i.e. 3E13 group) or 1×10^14 vg/kg (i.e. 1E14 group) to mice pre-treated with aspirin injection. One month after the AAV9-CB-IDS injection, the IDS enzyme activity was detected in brain (FIG. 8).

IFN-β = experiment: Serum IFN-β ELISA after AAV8, AAV9 or AAV843 injection in aspirin-treated mice (Example 4); assay type: in vivo, C57BL/6J mice
Experimental: (§3) Blood samples of mice were collected by retro-orbital bleeding. Half of the volume of blood samples was added with sodium citrate at a ratio of 1:9 for anticoagulation, mixed, centrifuged within 30 minutes (6000 rpm, 5 mins), and the supernatant was collected as the mouse plasma, for detection of the expression of Gluc. The remaining blood sample was left at room temperature for 2 hours to separate the serum, centrifuged at 6000 rpm for 15 min, and the supernatant was collected as the mouse serum sample. The contents of IFN-α and IFN-β were determined by using Mouse IFN-β ELISA kit (720131-2, Shanghai Mlbio Co., Ltd.), LEGEND MAX™ Mouse IFN-β ELISA Kit (439407, BioLegend), and Mouse IFN-α ELISA kit (706291-2, Shanghai Mlbio Co., Ltd.).
(§4) The injection dose of 50 mg/kg aspirin was used in further study of AAV-mediated expression of exogenous genes by three different AAV serotypes. The study design was similar to that of Example 2. Briefly, for each AAV serotype (i.e., AAV8-Lxp3.3-Gluc, AAV9-Lxp3.3-Gluc, or AAV843-Lxp3.3-Gluc), male C57BL/6J mice (purchased from Shanghai Jiesijie Experimental Animals Co., Ltd.) (n=4) with an average weight of 20 g were divided into two groups. One group was injected with aspirin at 50 mg/kg for 7 consecutive days, and the other group was injected with 5% castor oil (in PBS buffer (catalogue number: 02-024-1ACS, BI)) as a control. On Day 8, 5×10^12 vg/kg of AAV8-Lxp3.3-Gluc, AAV9-Lxp3.3-Gluc, or AAV843-Lxp3.3-Gluc virus (diluted in 150-200 μl PBS) was delivered to each mouse by tail vein injection. Blood sample were collected and expression level of luciferase was detected following the same methods as described in Example 2.
(§5) In the study described in Example 3, the level of IFN-α and IFN-β were determined by using Mouse IFN-β ELISA kit (720131-2, Shanghai Mlbio Co., Ltd.), LEGEND MAX™ Mouse IFN-β ELISA Kit (439407, BioLegend), and Mouse IFN-α ELISA kit (706291-2, Shanghai Mlbio Co., Ltd.) according to the user's manual.

[3] = tested on: expression of luciferase from AAV843-Lxp3.3-Gluc; experiment: Luciferase expression after AAV843-Lxp3.3-Gluc injection in aspirin-treated mice (Example 3); assay type: in vivo, C57BL/6J mice
Experimental: as §3, §2
(§6) The injection dose of 50 mg/kg aspirin was used in further study of AAV-mediated expression of exogenous genes by three different AAV serotypes. […] Blood sample were collected and expression level of luciferase was detected following the same methods as described in Example 2.

IFN-α [4] = experiment: Serum IFN-α ELISA after AAV8, AAV9 or AAV843 injection in aspirin-treated mice (Example 4); assay type: in vivo, C57BL/6J mice
Experimental: as §3, §4, §5

[5] = tested on: Gluc expression from AAV9-CB-Gluc in liver; experiment: Gluc mRNA and enzymatic activity in liver after AAV9-CB-Gluc with aspirin (Example 6); assay type: in vivo, mice
Experimental: (§7) Expression of exogenous gene was detected in mice either pre-treated with Aspirin, or co-administered with Aspirin. AAV9-CB-Gluc was prepared according to methods provided in Example 1, except that nucleic acid sequence for CB promoter (see SEQ ID NO: 3) was used. In brief, Aspirin was pre-administrated to a group of mice at 50 mg/kg by intraperitoneal injection for 7 days, followed by administration of AAV9-CB-Gluc (5×10^13 vg/kg) at day 8. In comparison, a group of mice without pre-administration of Aspirin was administrated with Aspirin at 50 mg/kg simultaneously in combination with AAV9-CB-Gluc. 15 days after the AAV9-CB-Gluc administration, the mice were sacrificed, and brain and liver were collected for determination of expression Gluc.

[6] = tested on: expression of luciferase from AAV8-Lxp3.3-Gluc; experiment: Luciferase expression after AAV8-Lxp3.3-Gluc injection in aspirin-treated mice (Example 3); assay type: in vivo, C57BL/6J mice
Experimental: as §3, §2, §6

[7] = tested on: expression level of the transgene (AAV); experiment: Co-administration of AAV and aspirin, transgene expression (preliminary); assay type: in vivo; settings: co-administration of AAV and aspirin in one formulation or separate formulations at the same time; preliminary results
From the text: Studies have been conducted for co-administration of AAV and aspirin either in one formulation or in separate formulations but at the same time.

[8] = tested on: expression of luciferase from AAV9-Lxp3.3-Gluc; experiment: Luciferase expression after AAV9-Lxp3.3-Gluc injection in aspirin-treated mice (Example 3); assay type: in vivo, C57BL/6J mice
Experimental: as §3, §2, §6

[9] = tested on: Gluc expression from AAV9-CB-Gluc in brain; experiment: Gluc mRNA and enzymatic activity in brain after AAV9-CB-Gluc with aspirin (Example 6); assay type: in vivo, mice; settings: for enzymatic activity level of Gluc, up-regulation vs non-treatment group: p<0.01 (FIG. 7B)
Experimental: as §7

IFN-α [10] = experiment: Serum IFN-α ELISA after AAV9 injection with aspirin at different doses (Example 2); assay type: in vivo, C57BL/6J mice; settings: Day 3 post AAV9 injection, vs control group (FIG. 2)
Experimental: as §1, §3

SMILES: CC(=O)Oc1ccccc1C(=O)O [aspirin, Acetylsalicylic acid]
- expression level of luciferase ([1]; 100 mg/kg of aspirin i.p. 7 days before AAV9-Lxp3.3-Gluc 5×10^12 vg/kg i.v., compared with other doses (FIG. 1)): highest expression level
- expression level of luciferase ([1]; aspirin i.p. 7 consecutive days at 1, 15, 30, 50, 100 mg/kg before AAV9-Lxp3.3-Gluc 5×10^12 vg/kg i.v., comparison across dose groups (FIG. 1)): dose dependent increase
- IDS enzyme activity in brain vs wild type mice group ([2]; aspirin pre-treatment (50 mg/kg) + AAV9-CB-IDS 3×10^13 vg/kg, one month after injection (FIG. 8)): even higher than that of the wild type mice group
- IDS enzyme activity in brain vs group receiving no aspirin but only AAV9-CB-IDS ([2]; aspirin pre-treatment + AAV9-CB-IDS 3×10^13 vg/kg vs AAV9-CB-IDS alone at 3×10^13 vg/kg (p<0.05) or 10^14 vg/kg, one month (FIG. 8)): significantly higher
- IFN-β level in the control group versus the aspirin treatment group (IFN-β; after AAV8 injection, aspirin 50 mg/kg 7 days (FIG. 4B)): always significantly higher than that in the aspirin treatment group
- IFN-β level (IFN-β; after AAV9 injection, aspirin 50 mg/kg 7 days, Day 1 to Day 31, significantly different from control Day 1 to Day 23 (FIG. 5B)): maintained at a low level
- IFN-β level (IFN-β; after AAV843 injection, Day 31, aspirin treatment vs control group (FIG. 6B)): no significant difference
- IFN-β level (IFN-β; after AAV843 injection, aspirin 50 mg/kg 7 days, vs control group, before Day 31 (FIG. 6B)): significantly lower than those in the control group
- transduction in vivo (expression of luciferase) ([3]; aspirin 50 mg/kg 7 consecutive days, AAV843-Lxp3.3-Gluc 5×10^12 vg/kg tail vein, vs control (FIG. 3C)): remarkably promote
- day of peak expression of luciferase after AAV injection ([3]; aspirin 50 mg/kg 7 days, AAV843-Lxp3.3-Gluc, control groups also peaked on Day 15): 15 days
- IFN-α level (IFN-α [4]; after AAV8 injection, aspirin 50 mg/kg 7 days, control significantly higher except Day 31 (FIG. 4A)): maintained at a relatively low level
- IFN-α level (IFN-α [4]; after AAV9 injection, aspirin 50 mg/kg 7 days, vs control group (FIG. 5A)): significantly lower than that in the control group
- IFN-α level (IFN-α [4]; after AAV843 injection, Day 31, aspirin treatment vs control group (FIG. 6A)): no significant difference
- IFN-α level (IFN-α [4]; after AAV843 injection, aspirin 50 mg/kg 7 days, vs control group, before Day 31 (FIG. 6A)): significantly lower than those in the control group
- mRNA level of Gluc vs non-treatment group ([5]; aspirin 50 mg/kg simultaneously with AAV9-CB-Gluc (FIG. 7C)): even lower than that of the non-treatment group
- level of enzymatic activity of Gluc vs non-treatment group ([5]; aspirin 50 mg/kg simultaneously with AAV9-CB-Gluc (FIG. 7D)): not significantly different
- level of enzymatic activity of Gluc, up-regulation vs non-treatment group ([5]; pre-injection of aspirin 50 mg/kg i.p. 7 days, AAV9-CB-Gluc 5×10^13 vg/kg, p<0.01 (FIG. 7D)): 1.95 fold
- level of mRNA of Gluc, up-regulation vs non-treatment group ([5]; pre-injection of aspirin 50 mg/kg i.p. 7 days, AAV9-CB-Gluc 5×10^13 vg/kg, p<0.05 (FIG. 7C)): 1.43 fold
- transduction in vivo (expression of luciferase) ([6]; aspirin 50 mg/kg 7 consecutive days, AAV8-Lxp3.3-Gluc 5×10^12 vg/kg tail vein, vs control (FIG. 3A)): remarkably promote
- day of peak expression of luciferase after AAV injection ([6]; aspirin 50 mg/kg 7 days, AAV8-Lxp3.3-Gluc, control groups also peaked on Day 15): 15 days
- expression level of the transgene [7]: increase the expression level of the transgene
- transduction in vivo (expression of luciferase) ([8]; aspirin 50 mg/kg 7 consecutive days, AAV9-Lxp3.3-Gluc 5×10^12 vg/kg tail vein, vs control (FIG. 3B)): remarkably promote
- day of peak expression of luciferase after AAV injection ([8]; aspirin 50 mg/kg 7 days, AAV9-Lxp3.3-Gluc, control groups also peaked on Day 15): 15 days
- mRNA level of Gluc, up-regulation vs non-treatment group ([9]; aspirin 50 mg/kg simultaneously with AAV9-CB-Gluc, 15 days after AAV (FIG. 7A)): 2.95 fold
- enzymatic activity level of Gluc, up-regulation vs non-treatment group ([9]; aspirin 50 mg/kg simultaneously with AAV9-CB-Gluc, 15 days after AAV): 3.55 fold
- mRNA level of Gluc, up-regulation vs non-treatment group ([9]; pre-injection of aspirin 50 mg/kg i.p. 7 days, AAV9-CB-Gluc 5×10^13 vg/kg day 8, 15 days after AAV, p<0.01 (FIG. 7A)): 5.5 fold
- enzymatic activity level of Gluc, up-regulation vs non-treatment group ([9]; pre-injection of aspirin 50 mg/kg i.p. 7 days, AAV9-CB-Gluc 5×10^13 vg/kg day 8, 15 days after AAV): 7.13 fold
- level of IFN-α on Day 3 (IFN-α [10]; aspirin 50 mg/kg): significantly lower
- level of IFN-α on Day 3 (IFN-α [10]; aspirin 100 mg/kg): significantly lower
